Measured values published in BindingDB's records for doi:10.1021/acsmedchemlett.8b00406 (China Agricultural University, 2018).

Molecular target: beta-hexosaminidase HsHex (Homo sapiens)
Assay: Inhibition of human beta-N-acetylhexosaminidase using p-nitrophenyl glycoside as substrate by spectrometric method

Structure (SMILES): O=C1c2cccc3cccc(c23)C(=O)N1CCNCCN1C(=O)c2cccc3cccc(c23)C1=O
- Ki: 3.2 µM
